In patent publication US10266564B2, “Cationic lipid cordiarimide hybrid compounds and a process for preparation thereof” (COUNCIL OF SCIENTIFIC & INDUSTRIAL RESEARCH, priority 2014, dated 2019):

Columns and labels:
[1] = test system: PC-3 (human prostate cancer cells); assay: MTT assay for cell viability, PC-3; assay type: cell-based; details: Homo sapiens, 48 h
Procedure: (§1) The human cancer cell lines e.g. HepG2 (hepatocellular carcinoma, ATCC® HB-8065™), PC-3 (human prostate cancer cells, ATCC® CRL-1435™), MCF-7 (breast adenocarcinoma, ATCC® […]), and mouse embryo fibroblasts (NIH/3T3, ATCC® CRL-1658™), used in the present study were obtained from the ATCC (American Type Culture Collection, USA and maintained in RPMI 1640 (Roswell Park Memorial Institute, Merck) with 10% FBS (Merck), supplemented with 1% antibiotic and antimycotic solution (Gibco, USA) at 37° C. in a humidified incubator with 5% CO2. All stock solutions of the compounds were prepared in cell culture grade DMSO (dimethyl sulfoxide) and stored at −20° C. Compounds were diluted in culture media prior to use in experiments. Annexin V-FITC apoptosis detection kits were purchased from Calbiochem. MTT dye was procured from Sigma-Aldrich. All the flow cytometry experiments were performed using a FACScan (Becton Dickinson, Mountain View, Calif.) flow cytometer, equipped with a single 488 nm argon laser.
(§2) Cell viability was assessed by MTT assay, which is based on the reduction of MTT by mitochondrial dehydrogenases of viable cells to form a purple formazan product. Briefly, cells (5-6×10^3/well) were plated in 96 well plates. After incubating overnight, the cells were treated with […] different concentrations (100, 50, 20, 10, 5, 2.5, 1.25 μM) in triplicates with the cationic lipidated cordiarimide and intermediates for 48 h. Subsequently, 10 μL of MTT (10 mg/mL) was added to each well and incubated for 3 h. The MTT formazan formed by viable cells was dissolved in 100 μL of DMSO and shaken for 10 min. The absorbance was measured on an ELISA reader. Each test was repeated at least three times. The concentration of the compound which gives the 50% growth inhibition value corresponding to IC50, was calculated using GraphPad prism 5 software. In the present invention we have screened 26 lipidated cordiarimides and the results are described in table 1.

[2] = test system: HepG2 (hepatocellular carcinoma); assay: MTT assay for cell viability, HepG2; assay type: cell-based, human; details: Homo sapiens, HepG2, 48 h
Procedure: as §1, §2

[3] = test system: MCF-7 (breast adenocarcinoma); assay: MTT assay for cell viability, MCF-7; assay type: cell-based, human; details: Homo sapiens, MCF7, 48 h
Procedure: as §1, §2

[4] = test system: mouse embryo fibroblasts (NIH/3T3); assay: MTT assay for cell viability, NIH/3T3; assay type: cell-based; details: NIH3T3, 48 h
Procedure: as §1, §2

## CCCCCC[N+](C)(CCCCCC)CC(=O)NC1CCC(=O)N(CC(=O)c2ccccc2)C1=O (centres unmarked) [Compound 8e, {[2,6-Dioxo-1-(2-oxo-2-phenyl-ethyl)-piperidin-3-ylcarbamoyl]-methyl}-Dihexyl-methyl-ammonium iodide]
[1]
  IC50: > 20 µM
[2]
  IC50: > 20 µM
[3]
  IC50: > 20 µM
[4]
  IC50: > 20 µM

## CCCCN(CCCC)CC(=O)NC1CCC(=O)N(CC(=O)c2ccccc2)C1=O (centres unmarked) [Compound 7c, 2-Dibutylamino-N-[2,6-dioxo-1-(2-oxo-2-phenyl-ethyl)-piperidin-3-yl]-acetamide]
[1]
  IC50: > 20 µM
[2]
  IC50: > 20 µM
[3]
  IC50: > 20 µM
[4]
  IC50: > 20 µM

## CCCCCCCCCCN(CCCCCCCCCC)CC(=O)NC1CCC(=O)N(CC(=O)c2ccccc2)C1=O (centres unmarked) [Compound 7i, 2-(Bis-decyl-amino)-N-[2,6-dioxo-1-(2-oxo-2-phenyl-ethyl)-piperidin-3-yl]acetamide]
[1]
  IC50: > 20 µM
[2]
  IC50: > 20 µM
[3]
  IC50: 14.2 µM
[4]
  IC50: > 20 µM

## CCC[N+](C)(CCC)CC(=O)NC1CCC(=O)N(CC(=O)c2ccccc2)C1=O (centres unmarked) [Compound 8b, Dipropylamm{[2,6-Dioxo-1-(2-oxo-2-phenyl-ethyl)-piperidin-3-ylcarbamoyl]-methyl}-methyl-ammonium iodide]
[1]
  IC50: > 20 µM
[2]
  IC50: > 20 µM
[3]
  IC50: > 20 µM
[4]
  IC50: > 20 µM

## CCCCCCCCCCCCCN(CCCCCCCCCCCCC)CC(=O)NC1CCC(=O)N(CC(=O)c2ccccc2)C1=O (centres unmarked) [Compound 7l, N-[2,6-Dioxo-1-(oxo-2-phenyl-ethyl)-piperidine-3-yl]-2-ditridecylamino-acetamide]
[1]
  IC50: > 20 µM
[2]
  IC50: > 20 µM
[3]
  IC50: > 20 µM
[4]
  IC50: > 20 µM

## CCCN(CCC)CC(=O)NC1CCC(=O)N(CC(=O)c2ccccc2)C1=O (centres unmarked) [Compound 7b, 2-Dipropylamino-N-[2,6-dioxo-1-(2-oxo-2-phenyl-ethyl)-piperidin-3-yl]acetamide]
[1]
  IC50: > 20 µM
[2]
  IC50: > 20 µM
[3]
  IC50: > 20 µM
[4]
  IC50: > 20 µM

## CCCCCCC[N+](C)(CCCCCCC)CC(=O)NC1CCC(=O)N(CC(=O)c2ccccc2)C1=O (centres unmarked) [Compound 8f, {[2,6-Dioxo-1-(2-oxo-2-phenyl-ethyl)-piperidin-3-ylcarbamoyl]-methyl}-Diheptyl-methyl-ammonium iodide]
[1]
  IC50: > 20 µM
[2]
  IC50: 3.3 µM
[3]
  IC50: > 20 µM
[4]
  IC50: > 20 µM

## CCCCCCCCC[N+](C)(CCCCCCCCC)CC(=O)NC1CCC(=O)N(CC(=O)c2ccccc2)C1=O (centres unmarked) [Compound 8h, {[2,6-Dioxo-1-(2-oxo-2-phenyl-ethyl)-piperidin-3-ylcarbamoyl]-methyl}-Methyl-dinonyl-ammonium iodide]
[1]
  IC50: 8.75 µM
[2]
  IC50: 3.26 µM
[3]
  IC50: 6.45 µM
[4]
  IC50: 2.74 µM

## CC[N+](C)(CC)CC(=O)NC1CCC(=O)N(CC(=O)c2ccccc2)C1=O (centres unmarked) [Compound 8a, {[2,6-Dioxo-1-(2-oxo-2-phenyl-ethyl)-piperidin-3-ylcarbamoyl]-methyl}-Diethyl-methyl-ammonium iodide]
[1]
  IC50: > 20 µM
[2]
  IC50: > 20 µM
[3]
  IC50: > 20 µM
[4]
  IC50: > 20 µM

## CCCCCCCCCN(CCCCCCCCC)CC(=O)NC1CCC(=O)N(CC(=O)c2ccccc2)C1=O (centres unmarked) [Compound 7h, 2Dinonylamino-N-[2,6-dioxo-1-(2-oxo-2-phenyl-ethyl)-piperidin-3-yl]-acetamide]
[1]
  IC50: > 20 µM
[2]
  IC50: > 20 µM
[3]
  IC50: 19.9 µM
[4]
  IC50: 10.7 µM

## CCCCCCN(CCCCCC)CC(=O)NC1CCC(=O)N(CC(=O)c2ccccc2)C1=O (centres unmarked) [Compound 7e, 2-Dihexylamino-N-[2,6-dioxo-1-(2-oxo-2-phenyl-ethyl)-piperidin-3-yl]-acetamide]
[1]
  IC50: > 20 µM
[2]
  IC50: 5.7 µM
[3]
  IC50: 3.85 µM
[4]
  IC50: 3.74 µM

## CCCCCCCCCCCCN(CCCCCCCCCCCC)CC(=O)NC1CCC(=O)N(CC(=O)c2ccccc2)C1=O (centres unmarked) [Compound 7k, N-[2,6-Dioxo-1-(oxo-2-phenyl-ethyl)-piperidine-3-yl]-2-didodecylamino-acetamide]
[1]
  IC50: > 20 µM
[2]
  IC50: > 20 µM
[3]
  IC50: > 20 µM
[4]
  IC50: > 20 µM

## CCCCCCCCCCCN(CCCCCCCCCCC)CC(=O)NC1CCC(=O)N(CC(=O)c2ccccc2)C1=O (centres unmarked) [Compound 7j, N-[2,6-Dioxo-1-(oxo-2-phenyl-ethyl)-piperidine-3-yl]-2-diundecylamino-acetamide]
[1]
  IC50: 17.4 µM
[2]
  IC50: > 20 µM
[3]
  IC50: > 20 µM
[4]
  IC50: > 20 µM

## CCN(CC)CC(=O)NC1CCC(=O)N(CC(=O)c2ccccc2)C1=O (centres unmarked) [Compound 7a, 2-Diethylamino-N-[2,6-dioxo-1-(2-oxo-2-phenyl-ethyl)-piperidin-3-yl]-acetamide]
[1]
  IC50: > 20 µM
[2]
  IC50: > 20 µM
[3]
  IC50: > 20 µM
[4]
  IC50: > 20 µM

## CCCCCCCCN(CCCCCCCC)CC(=O)NC1CCC(=O)N(CC(=O)c2ccccc2)C1=O (centres unmarked) [Compound 7g, 2-Dioctylamino-N-[2,6-dioxo-1-(2-oxo-2-phenyl-ethyl)-piperidin-3-yl]-acetamide]
[1]
  IC50: > 20 µM
[2]
  IC50: 11.6 µM
[3]
  IC50: 10.3 µM
[4]
  IC50: 7.18 µM

## CCCC[N+](C)(CCCC)CC(=O)NC1CCC(=O)N(CC(=O)c2ccccc2)C1=O (centres unmarked) [Compound 8c, Dibutyl-{[2,6-dioxo-1-(2-oxo-2-phenyl-ethyl)-piperidin-3-ylcarbamoyl]-methyl}-methyl-ammonium iodide]
[1]
  IC50: > 20 µM
[2]
  IC50: > 20 µM
[3]
  IC50: > 20 µM
[4]
  IC50: > 20 µM

## CCCCCN(CCCCC)CC(=O)NC1CCC(=O)N(CC(=O)c2ccccc2)C1=O (centres unmarked) [Compound 7d, 2-Dipentylamino-N-[2,6-dioxo-1-(2-oxo-2-phenyl-ethyl)-piperidin-3-yl]-acetamide]
[1]
  IC50: > 20 µM
[2]
  IC50: 12.5 µM
[3]
  IC50: > 20 µM
[4]
  IC50: > 20 µM

## CCCCC[N+](C)(CCCCC)CC(=O)NC1CCC(=O)N(CC(=O)c2ccccc2)C1=O (centres unmarked) [Compound 8d, {[2,6-Dioxo-1-(2-oxo-2-phenyl-ethyl)-piperidin-3-ylcarbamoyl]-methyl}-Methyl-dipentyl-ammonium iodide]
[1]
  IC50: > 20 µM
[2]
  IC50: > 20 µM
[3]
  IC50: > 20 µM
[4]
  IC50: > 20 µM

## CCCCCCCCCCCCCCN(CCCCCCCCCCCCCC)CC(=O)NC1CCC(=O)N(CC(=O)c2ccccc2)C1=O (centres unmarked) [Compound 7m, N-[2,6-Dioxo-1-(oxo-2-phenyl-ethyl)-piperidine-3-yl]-2-ditetradecylamino-acetamide]
[1]
  IC50: > 20 µM
[2]
  IC50: > 20 µM
[3]
  IC50: > 20 µM
[4]
  IC50: > 20 µM

## CCCCCCCN(CCCCCCC)CC(=O)NC1CCC(=O)N(CC(=O)c2ccccc2)C1=O (centres unmarked) [Compound 7f, 2-Diheptylamino-N-[2,6-dioxo-1-(2-oxo-2-phenyl-ethyl)-piperidin-3-yl]-acetamide]
[1]
  IC50: > 20 µM
[2]
  IC50: 7.81 µM
[3]
  IC50: 9.33 µM
[4]
  IC50: 8.73 µM
